Drawing on ChEMBL document CHEMBL5729134, “Apoptosis signal-regulating kinase 1 inhibitors and methods of use thereof” (2022), this text covers IC50 for 55 compounds.

As a reminder, the IC50 is the concentration at which inhibition is half-maximal.

The target in this experiment is T1, Mitogen-activated protein kinase kinase kinase 5 (Homo sapiens, UniProt Q99683).
T1 sequence (Q99683 whole entry): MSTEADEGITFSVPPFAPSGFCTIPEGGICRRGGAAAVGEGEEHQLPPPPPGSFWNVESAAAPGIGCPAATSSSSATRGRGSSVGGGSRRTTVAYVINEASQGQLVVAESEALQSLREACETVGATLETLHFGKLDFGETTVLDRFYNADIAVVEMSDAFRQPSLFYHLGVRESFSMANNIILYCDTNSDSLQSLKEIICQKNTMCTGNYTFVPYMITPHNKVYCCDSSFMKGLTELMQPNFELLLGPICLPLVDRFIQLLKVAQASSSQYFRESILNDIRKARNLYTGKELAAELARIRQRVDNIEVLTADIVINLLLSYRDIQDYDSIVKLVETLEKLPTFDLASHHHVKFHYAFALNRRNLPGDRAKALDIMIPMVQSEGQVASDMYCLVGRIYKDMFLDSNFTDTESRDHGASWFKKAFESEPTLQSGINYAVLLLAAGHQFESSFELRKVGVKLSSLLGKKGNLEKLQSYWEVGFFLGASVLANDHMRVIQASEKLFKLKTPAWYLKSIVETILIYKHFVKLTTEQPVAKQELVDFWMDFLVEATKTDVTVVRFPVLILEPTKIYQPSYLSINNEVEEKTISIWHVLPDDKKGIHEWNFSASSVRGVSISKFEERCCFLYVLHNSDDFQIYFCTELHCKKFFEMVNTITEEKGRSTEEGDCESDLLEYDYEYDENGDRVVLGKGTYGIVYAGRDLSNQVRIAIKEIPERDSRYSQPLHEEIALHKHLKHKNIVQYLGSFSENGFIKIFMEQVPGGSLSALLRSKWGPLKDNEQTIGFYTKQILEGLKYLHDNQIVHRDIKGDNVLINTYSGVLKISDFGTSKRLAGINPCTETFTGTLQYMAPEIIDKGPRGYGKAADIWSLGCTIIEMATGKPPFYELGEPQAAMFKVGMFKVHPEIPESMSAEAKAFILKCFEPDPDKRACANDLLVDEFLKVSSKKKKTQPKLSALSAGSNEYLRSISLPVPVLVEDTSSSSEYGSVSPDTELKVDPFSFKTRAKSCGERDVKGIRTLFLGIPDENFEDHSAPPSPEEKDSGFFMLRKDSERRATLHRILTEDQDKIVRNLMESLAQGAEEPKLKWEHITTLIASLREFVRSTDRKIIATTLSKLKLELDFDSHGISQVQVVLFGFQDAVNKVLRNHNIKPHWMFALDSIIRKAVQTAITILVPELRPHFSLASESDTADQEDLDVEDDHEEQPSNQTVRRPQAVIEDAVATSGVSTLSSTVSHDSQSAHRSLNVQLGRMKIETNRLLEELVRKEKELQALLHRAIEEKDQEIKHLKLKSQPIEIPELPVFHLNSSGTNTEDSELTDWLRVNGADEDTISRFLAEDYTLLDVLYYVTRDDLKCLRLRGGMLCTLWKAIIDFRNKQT
The experiment is described as follows: HTRF KinEASE Assay : ASK1 was purchased from Thermofisher (Catalogue #PV4011), ATP was purchased from Sigma (Catalogue #A7699), HTRF® KinEASE Assay System was obtained from Cisbio (Bedford, Mass.). ½ Area plate was purchased from Perkin Elmer (Catalogue ##6005560). HTRF® KinEASE-STK is a generic method for measuring serine/threonine kinase activities using a time-resolved fluorescence resonance energy transfer (TR-FRET) immunoassay. The IC50 value for each compound was determined in the presence of compound (various concentration from 0 to 10 μM) and a fixed amount of ATP and peptide substrates. The test compound, 1 μM STK3 peptide substrate, and […] are incubated with kinase reaction buffer containing 50 mM HEPES Ph 7.5, 0.01% BRIJ-35, 10 mM MgCl2, and 1 mM EGTA for 30 minutes. 100 μM ATP is added to start kinase reaction and incubated for 3 hours. The STK3-antibody labeled with Eu3+-Cryptate and 125 nM streptavidin-XL665 are mixed in a single addition with stop reagents provided by the Cisbio kit used to stop the kinase reaction. Fluorescence is detected using an Envision Multilabeled 2014 reader from PerkinElmer. The Fluorescence is measured at 615 nm (Cryptate) and 665 nm (XL665) and a ratio of 665 nm/615 nm is calculated for each well. The resulting TR-FRET is proportional to the phosphorylation level. Staurosporine was used as the positive control. IC50 was determined by Xlfit 5.3.
Turning to `COc1cc2c(cc1C(=O)Nc1cccc(-c3nnnn3[C@H](C)CO)n1)CN(C(=O)C(C)(C)CO)CC2`, the IC50 is 1.25 to 10 nM.

Turning to `CCOC(=O)N1CCc2cnc(C(=O)Nc3cccc(-c4nncn4[C@H](C)CO)n3)cc2C1`, the 50% inhibitory concentration (IC50) was less than 1.25 nM.

Regarding `CC(C)n1cnnc1-c1cccc(NC(=O)c2cc3c(cn2)CCN(C(=O)N2CCCC2)C3)n1`, the IC50 was less than 1.25 nM.

As to `CC(C)CN1CCc2cnc(C(=O)Nc3cccc(-c4nncn4[C@H](C)CO)n3)cc2C1`, the IC50 is 1.25 to 10 nM.

Turning to `COc1cc2c(cc1C(=O)Nc1cccc(-c3nnnn3[C@H](C)CO)n1)CN(C(=O)c1ccc(F)cc1)CC2`, the IC50 is less than 1.25 nM.

With `C[C@H](CO)n1cnnc1-c1cccc(NC(=O)c2cc3c(cc2F)CCN(C(=O)N2CCCC2)C3)n1`, the IC50 was less than 1.25 nM.

Turning to `COc1cc2c(cc1C(=O)Nc1cccc(-c3nnnn3C(C)C)n1)CN(S(=O)(=O)C1CC1)CC2`, the IC50 is less than 1.25 nM.

For the compound `CC(C)N1CCc2cc(F)c(C(=O)Nc3cccc(-c4nncn4[C@H](C)CO)n3)cc2C1`, the IC50 was less than 1.25 nM.

As for `COc1cc2c(cc1C(=O)Nc1cccc(-c3nnnn3C(C)C)n1)CN(C(C)C)CC2`, the IC50 was 1.25 to 10 nM.

On to `C[C@H](CO)n1cnnc1-c1cccc(NC(=O)c2cc3c(cc2F)CCN(C)C3)n1`, for which the IC50 is 1.25 to 10 nM.

In the case of `COc1cc2c(cc1C(=O)Nc1cccc(-c3nnnn3C(C)C)n1)CN(S(=O)(=O)CCC(F)(F)F)CC2`, the IC50 is 1.25 to 10 nM.

`COc1cc2c(cc1C(=O)Nc1cccc(-c3nncn3[C@H](C)CO)n1)CN(C(=O)OC(C)C)CC2`: the IC50 is 1.25 to 10 nM.

For `COc1cc2c(cc1C(=O)Nc1cccc(-c3nnnn3[C@@H]3CCC[C@@H]3O)n1)CN(C(=O)OCC(F)(F)F)CC2`, the IC50 is 1.25 to 10 nM.

With `CCNC(=O)N1CCc2cc(F)c(C(=O)Nc3cccc(-c4nncn4[C@H](C)CO)n3)cc2C1`, the IC50 was less than 1.25 nM.

For `C[C@H](CO)n1cnnc1-c1cccc(NC(=O)c2cc3c(cn2)CCN(C(=O)N2CCCC2)C3)n1`, the IC50 is 1.25 to 10 nM.

`CCNC(=O)N1CCc2cnc(C(=O)Nc3cccc(-c4nncn4[C@H](C)CO)n3)cc2C1`: the IC50 is 1.25 to 10 nM.

Regarding `COc1cc2c(cc1C(=O)Nc1cccc(-c3nncn3[C@H](C)CO)n1)CN(C(=O)OC(C)(C)C)CC2`, the IC50 is less than 1.25 nM.

Take `CCOC(=O)N1CCc2cc(OC)c(C(=O)Nc3cccc(-c4nnnn4C(C)C)n3)cc2C1`: the IC50 is less than 1.25 nM.

Turning to `COc1cc2c(cc1C(=O)Nc1cccc(-c3nnnn3[C@H](C)CO)n1)CN(C(=O)c1cn(C3CC3)cn1)CC2`, the IC50 was 1.25 to 10 nM.

For the compound `COc1cc2c(cc1C(=O)Nc1cccc(-c3nnnn3[C@H](C)CO)n1)CN(S(=O)(=O)CCC(F)(F)F)CC2`, the IC50 was 1.25 to 10 nM.

As for `CCNC(=O)N1CCc2cc(OC)c(C(=O)Nc3cccc(-c4nncn4[C@H](C)CO)n3)cc2C1`, the IC50 is less than 1.25 nM.

`C[C@H](CO)n1cnnc1-c1cccc(NC(=O)c2cc3c(cn2)CCN(S(=O)(=O)N(C)C)C3)n1`: the IC50 was less than 1.25 nM.

With `COc1cc2c(cc1C(=O)Nc1cccc(-c3nnnn3[C@H](C)CO)n1)CN(C(=O)N1CCCC1)CC2`, the IC50 is less than 1.25 nM.

Take `CC(C)n1cnnc1-c1cccc(NC(=O)c2cc3c(cn2)CCN(Cc2ccccn2)C3)n1`: the IC50 was less than 1.25 nM.

`COc1cc2c(cc1C(=O)Nc1cccc(-c3nnnn3[C@H](C)CO)n1)CN(S(=O)(=O)C1CC1)CC2`: the IC50 is less than 1.25 nM.

`COc1cc2c(cc1C(=O)Nc1cccc(-c3nncn3[C@H](C)CO)n1)CN(C(=O)C(C)(C)C)CC2`: the IC50 is less than 1.25 nM.

Consider `CC(C)COC(=O)N1CCc2cc(F)c(C(=O)Nc3cccc(-c4nncn4[C@H](C)CO)n3)cc2C1`, for which the IC50 was 1.25 to 10 nM.

Turning to `COc1cc2c(cc1C(=O)Nc1cccc(-c3nnnn3C(C)C)n1)CN(C)CC2`, the IC50 is less than 1.25 nM.

Regarding `COc1cc2c(cc1C(=O)Nc1cccc(-c3nnnn3[C@H](C)CO)n1)CN(C(=O)C[C@H](C)O)CC2`, the IC50 was less than 1.25 nM.

Take `CCNC(=O)N1CCc2cc(OC)c(C(=O)Nc3cccc(-c4nnnn4C(C)C)n3)cc2C1`: the IC50 was less than 1.25 nM.

Consider `C[C@H](CO)n1cnnc1-c1cccc(NC(=O)c2cc3c(cc2F)CCN(C(=O)OC2CCCC2)C3)n1`, for which the IC50 is 1.25 to 10 nM.

For the compound `C[C@H](CO)n1cnnc1-c1cccc(NC(=O)c2cc3c(cc2F)CCN(C(=O)OC2CC2)C3)n1`, the IC50 was 1.25 to 10 nM.

With `CCNC(=O)N1CCc2cc(OC)c(C(=O)Nc3cccc(-c4nncn4C(C)C)n3)cc2C1`, the IC50 is less than 1.25 nM.

Consider `COc1cc2c(cc1C(=O)Nc1cccc(-c3nnnn3C(C)C)n1)CN(C(=O)N1CCCC1)CC2`, for which the IC50 is less than 1.25 nM.

For `C[C@H](CO)n1cnnc1-c1cccc(NC(=O)c2cc3c(cc2F)CCN(C(=O)C(C)(C)C)C3)n1`, the IC50 is 1.25 to 10 nM.

Consider `CC(C)n1cnnc1-c1cccc(NC(=O)c2cc3c(cc2F)CCN(c2ncccn2)C3)n1`, for which the IC50 was less than 1.25 nM.

As for `COc1cc2c(cc1C(=O)Nc1cccc(-c3nncn3[C@H](C)CO)n1)CN(C(C)C)CC2`, the IC50 was less than 1.25 nM.

As to `COc1cc2c(cc1C(=O)Nc1cccc(-c3nncn3[C@H](C)CO)n1)CN(S(=O)(=O)CCC(F)(F)F)CC2`, the IC50 is less than 1.25 nM.

As to `C[C@H](CO)n1cnnc1-c1cccc(NC(=O)c2cc3c(cc2F)CCN(C(=O)OCCF)C3)n1`, the IC50 was less than 1.25 nM.

Turning to `C[C@H](CO)n1cnnc1-c1cccc(NC(=O)c2cc3c(cn2)CCN(Cc2ccccn2)C3)n1`, the IC50 was less than 1.25 nM.

For `COc1cc2c(cc1C(=O)Nc1cccc(-c3nnnn3[C@H](C)CO)n1)CN(C(=O)OCC(F)(F)F)CC2`, the IC50 was 1.25 to 10 nM.

In the case of `C[C@H](CO)n1cnnc1-c1cccc(NC(=O)c2cc3c(cc2F)CCN(S(=O)(=O)C2CC2)C3)n1`, the IC50 is less than 1.25 nM.

For the compound `COc1cc2c(cc1C(=O)Nc1cccc(-c3nncn3C(C)C)n1)CN(C(=O)c1ccc(F)cc1)CC2`, the concentration for half-maximal inhibition (IC50) was less than 1.25 nM.

As for `CC(C)OC(=O)N1CCc2cc(F)c(C(=O)Nc3cccc(-c4nncn4[C@H](C)CO)n3)cc2C1`, the IC50 was less than 1.25 nM.

For the compound `COc1cc2c(cc1C(=O)Nc1cccc(-c3nnnn3[C@H](C)CO)n1)CN(C(C)C)CC2`, the IC50 is less than 1.25 nM.

Consider `CC(C)n1cnnc1-c1cccc(NC(=O)c2cc3c(cn2)CCN(S(=O)(=O)c2ccccc2)C3)n1`, for which the IC50 was 1.25 to 10 nM.

Consider `COc1cc2c(cc1C(=O)Nc1cccc(-c3nnnn3C(C)C)n1)CN(C(=O)C(C)(C)C)CC2`, for which the IC50 is less than 1.25 nM.

On to `COc1cc2c(cc1C(=O)Nc1cccc(-c3nncn3[C@H](C)CO)n1)CN(C(=O)c1ccc(F)cc1)CC2`, for which the IC50 is 1.25 to 10 nM.

On to `COc1cc2c(cc1C(=O)Nc1cccc(-c3nncn3C(C)C)n1)CN(S(=O)(=O)C1CC1)CC2`, for which the IC50 was 1.25 to 10 nM.

As for `C[C@H](CO)n1cnnc1-c1cccc(NC(=O)c2cc3c(cc2F)CCN(S(=O)(=O)CCC(F)(F)F)C3)n1`, the IC50 was less than 1.25 nM.

`COc1cc2c(cc1C(=O)Nc1cccc(-c3nnnn3[C@H](C)CO)n1)CN(C)CC2`: the IC50 was 1.25 to 10 nM.

As to `COc1cc2c(cc1C(=O)Nc1cccc(-c3nncn3[C@H](C)CO)n1)CN(C(=O)N1CCCC1)CC2`, the IC50 is less than 1.25 nM.

As to `CCOC(=O)N1CCc2cc(OC)c(C(=O)Nc3cccc(-c4nnnn4[C@H](C)CO)n3)cc2C1`, the IC50 was 1.25 to 10 nM.

As for `C[C@H](CO)n1cnnc1-c1cccc(NC(=O)c2cc3c(cn2)CCN(C(=O)OCC(F)(F)F)C3)n1`, the IC50 is less than 1.25 nM.

Regarding `COc1cc2c(cc1C(=O)Nc1cccc(-c3nnnn3C(C)C)n1)CN(C(=O)c1ccc(F)cc1)CC2`, the IC50 is less than 1.25 nM.
